Where a SMILES comes first, the peptide text is derived from it. [ ]: non-standard residue; d: D form. The star is where a group is joined. dPhe(4-NHCONH2) = NC(=O)Nc1ccc(C[C@@H](N)C(=O)O)cc1; Dihydroorotyl(S) = O=C1C[C@@H](C(=O)*)NC(=O)N1; dPhe(4-Cl) = N[C@H](Cc1ccc(Cl)cc1)C(=O)O; Phe(4-NH2) = Nc1ccc(C[C@H](N)C(=O)O)cc1; d2Nal = N[C@H](Cc1ccc2ccccc2c1)C(=O)O; Lys(iPr) = CC(C)NCCCC[C@H](N)C(=O)O; d3Pal = N[C@H](Cc1cccnc1)C(=O)O
Assays:
Assay type in all cases: toxicity, cell-based
[1] = system: U2OS; test: Incucyte cell viability with U2OS; conditions: human, 10 µM, compound concentration 10 uM
[2] = system: Fibroblast; test: Incucyte cell viability with human fibroblast; conditions: 10 µM, compound concentration 10 uM
[3] = system: HEK-293T; test: Incucyte cell viability with HEK293T; conditions: human, 10 µM, compound concentration 10 uM
[4] = 0 h, replicate number 1, timepoint 0 hours
[5] = 0 h, replicate number 2, timepoint 0 hours
[6] = 6 h, replicate number 1, timepoint 6 hours
[7] = 6 h, replicate number 2, timepoint 6 hours
[8] = 12 h, replicate number 1, timepoint 12 hours
[9] = 12 h, replicate number 2, timepoint 12 hours
[10] = 18 h, replicate number 1, timepoint 18 hours
[11] = 18 h, replicate number 2, timepoint 18 hours
[12] = 24 h, replicate number 1, timepoint 24 hours
[13] = 24 h, replicate number 2, timepoint 24 hours
Note: unitless GR value; below 1 slowed growth and below 0 cell loss.

Row | Compound | Growth Rate [1, 4] | Growth Rate [1, 6] | Growth Rate [1, 7] | Growth Rate [1, 8] | Growth Rate [1, 9] | Growth Rate [1, 10] | Growth Rate [1, 11] | Growth Rate [1, 12] | Growth Rate [1, 13] | Growth Rate [2, 4] | Growth Rate [2, 5] | Growth Rate [3, 4] | Growth Rate [3, 5] | Growth Rate [3, 8] | Growth Rate [3, 10] | Growth Rate [3, 12] | Growth Rate [3, 13] | Growth Rate [3, 6] | Growth Rate [2, 6] | Growth Rate [2, 12] | also measured
1 | CC(C)[C@H](C(=O)Nc1ccc(C(=O)NO)cc1)c1ccccc1 [AR-42] | -0.37 | 0.34 | 0.99 | 0.5 | 0.71 | 0.3 | 0.56 | 0.39 | 0.42 | 0.24 | 0 | 0.33 | 0 | 0.65 | 0.28 | 0.18 | 0.23 | – | – | – | Growth Rate [1, 5]: 0.37; Growth Rate [3, 9]: 0.04
2 | OC[C@H]1O[C@@H](n2cnc3c(NC4CCCC4)ncnc32)[C@H](O)[C@@H]1O [N6-CYCLOPENTYLADENOSINE] | – | 0.36 | 0.74 | 0.69 | 0.94 | 0.53 | 0.93 | 0.71 | 1 | 0.37 | -0.09 | -0.12 | -0.14 | 0.81 | 0.75 | 0.73 | 0.66 | 0.92 | – | – | Growth Rate [2, 13]: 0.92; Growth Rate [3, 7]: 0.12; Growth Rate [3, 9]: 0.6; Growth Rate [3, 11]: 0.65
3 | CCc1nn2c(C)cc(C)nc2c1Cc1ccc(-c2nnc(C3CCNCC3)o2)cc1 | – | – | – | – | – | – | – | – | – | – | – | – | 0.38 | – | 0.88 | – | – | 0.9 | -0.59 | -0.25 | Growth Rate [1, 5]: 0.09; Growth Rate [2, 7]: 0.22; Growth Rate [2, 8]: -0.55; Growth Rate [2, 9]: 0.37; Growth Rate [2, 10]: -0.43; Growth Rate [2, 11]: 0.56; Growth Rate [2, 13]: 0.65
4 | CCS(=O)(=O)Nc1ccc(Oc2ccc(F)cc2F)c(-c2cn(C)c(=O)c3[nH]ccc23)c1 [MIVEBRESIB] | – | – | 0.85 | – | – | – | – | – | 0.95 | – | – | – | – | – | 0.75 | 0.4 | 0.28 | – | -0.16 | – | Growth Rate [1, 5]: -0.35; Growth Rate [2, 7]: 0.52; Growth Rate [3, 9]: 0.78; Growth Rate [3, 11]: 0.41
5 | CCCCC[C@H](O)/C=C/[C@H]1CCC(=O)[C@@H]1CCCCCCC(=O)O | 0.47 | 0.51 | – | 0.66 | – | 0.5 | – | 0.96 | – | -0.34 | -0.08 | 0.81 | -0.24 | 0.56 | 0.7 | 0.77 | 0.67 | 0.64 | – | 0.96 | Growth Rate [3, 7]: 0.48; Growth Rate [3, 9]: 0.7; Growth Rate [3, 11]: 0.73
6 | Nc1nc(CC(=O)Nc2ccc(CCNC[C@H](O)c3ccccc3)cc2)cs1 [MIRABEGRON] | 0.18 | – | – | 0.95 | – | 0.54 | – | – | – | 0.35 | 0.45 | 0.8 | 0.62 | – | – | – | – | – | 0.68 | – | Growth Rate [2, 7]: 0.56; Growth Rate [2, 8]: 0.9
7 | CCN(Cc1ccncc1)C(=O)C(CO)c1ccccc1 (stereo not drawn) [TROPICAMIDE] | 0.73 | 0.58 | – | – | 0.99 | – | 0.92 | – | – | 0.46 | -0.24 | 0.72 | – | 0.97 | 0.93 | 0.88 | 1 | 0.92 | – | – | Growth Rate [1, 5]: 0.44; Growth Rate [3, 9]: 0.95; Growth Rate [3, 11]: 0.83
8 | C[C@H](N)COC(=O)[C@@H](CCCCN)NC(=O)Cc1c(-c2ccc3ccccc3c2)[nH]c2c1ccc1ccccc12 | – | 0.46 | – | 0.89 | 0.83 | 0.73 | 0.76 | – | – | 0.29 | 0.37 | – | 0.88 | 0.97 | – | – | – | – | 0.67 | 0.64 | Growth Rate [2, 10]: 0.71
9 | O=C(CCCc1ccccc1)Nc1nc2ccccc2c(=O)s1 | -0.37 | – | 0.67 | – | 0.83 | – | 0.76 | – | 0.84 | – | 0.6 | – | 0.98 | 0.13 | 0.34 | 0.34 | 0.84 | 0.03 | -0.7 | -0.59 | Growth Rate [2, 7]: -0.65; Growth Rate [2, 8]: -0.62; Growth Rate [2, 9]: -0.39; Growth Rate [2, 10]: -0.7; Growth Rate [2, 11]: -0.32; Growth Rate [2, 13]: -0.34; Growth Rate [3, 11]: 0.95
10 | Cc1ccc(F)cc1C(=O)Nc1ccc(C(=O)N2Cc3cccn3Cc3ccccc32)c(Cl)c1 [LIXIVAPTAN] | -0.09 | 0.32 | 0.89 | – | – | – | 0.89 | 0.9 | 0.94 | -0.13 | – | 0.91 | – | – | – | – | – | – | 0.63 | 0.45 | Growth Rate [2, 7]: 0.2; Growth Rate [2, 9]: 0.59; Growth Rate [2, 11]: 0.75
11 | CCCCCCCCc1ccc(CCC(N)(CO)CO)cc1 [FINGOLIMOD] | – | -0.97 | -0.45 | -0.74 | -0.31 | -0.23 | – | 0.13 | -0.13 | – | – | – | – | -0.52 | -0.41 | -0.33 | -0.4 | -0.74 | -0.91 | -0.7 | Growth Rate [2, 7]: -0.95; Growth Rate [2, 8]: -0.88; Growth Rate [2, 9]: -0.71; Growth Rate [2, 10]: -0.82; Growth Rate [2, 11]: -0.59; Growth Rate [2, 13]: -0.42; Growth Rate [3, 7]: -0.91; Growth Rate [3, 9]: -0.63; Growth Rate [3, 11]: -0.5
12 | CC(=O)N[C@H](Cc1ccc2ccccc2c1)C(=O)N[C@H](Cc1ccc(Cl)cc1)C(=O)N[C@H](Cc1cccnc1)C(=O)N[C@@H](CO)C(=O)N[C@@H](Cc1ccc(NC(=O)[C@@H]2CC(=O)NC(=O)N2)cc1)C(=O)N[C@H](Cc1ccc(NC(N)=O)cc1)C(=O)N[C@@H](CC(C)C)C(=O)N[C@@H](CCCCNC(C)C)C(=O)N1CCC[C@H]1C(=O)N[C@H](C)C(N)=O [DEGARELIX] (Ac-[d2Nal][dPhe(4-Cl)][d3Pal]S[Phe(4-NH2)](Dihydroorotyl(S))[dPhe(4-NHCONH2)]L[Lys(iPr)]P[dA]-NH2) | -1 | – | – | – | – | – | – | – | – | -1 | -0.9 | -0.99 | – | – | – | – | – | – | – | – | –
13 | CN(C)C(=O)Cn1cc(-c2ccc(-c3cncc4ccccc34)cc2)cn1 | -0.34 | 0.31 | 0.79 | 0.43 | 0.74 | 0.59 | 0.76 | 0.7 | 0.86 | – | – | 0.84 | – | 0.97 | 0.9 | 0.9 | – | – | – | 0.05 | Growth Rate [1, 5]: 0.27; Growth Rate [2, 8]: 0.27; Growth Rate [2, 9]: 1; Growth Rate [2, 10]: 0.21; Growth Rate [2, 11]: 0.82; Growth Rate [2, 13]: 0.61
14 | Cc1noc(-c2ccc(-c3ccc(CC(=O)O)cc3)cc2)c1NC(=O)O[C@H](C)c1ccccc1Cl | – | – | 0.82 | – | 0.92 | – | 0.93 | – | 0.95 | -0.69 | 0.54 | – | – | 0.85 | 0.67 | 0.81 | – | – | – | – | –
15 | COc1cc2nc(N3CCN(C(=O)c4ccco4)CC3)nc(N)c2cc1OC.Cl [PRAZOSIN HYDROCHLORIDE] | -0.45 | 0.78 | – | 0.57 | 0.91 | 0.56 | – | 0.77 | 0.92 | – | – | – | – | 0.66 | 0.88 | 0.92 | – | 0.79 | -0.46 | 0.44 | Growth Rate [2, 8]: 0.21; Growth Rate [2, 9]: 0.92; Growth Rate [2, 10]: 0.49

From ChEMBL document CHEMBL5058564, “EUbOPEN Chemogenomics Library 2 (Incucyte)” (2022)
